Assay results published in the supplement of paper PMC11208160.

Assay: recombinant barcode read abundance after kanamycin selection (control-corrected) (log10(CPM+1)); higher = more efficient recombination; sequences stand for … in AGTGCAGAGAAAATCGGCCAGTTTTCTCTGCCTGCAGTCCGCATGCCGT…AGATTTATGCAGCGGACTGCCTTTCTCCCAAAGTGATAAACCGGACAGTATCATGGACCGGTTTTCCCGGTAATCCGTATTTGCAAGGTTGGTTTCACT; site = the 11-nt target
Method in brief: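 Pooled E. coli screen pairing targets with IS621 bridge RNA target-binding loops. Each oligo (promoter, target, barcode, J23119-driven first 104 bridge RNA bases) was Gibson-cloned into a vector with the remaining 73 bp and T7-inducible recombinase, then co-electroporated with a donor plasmid. Two replicates each were plated on chloramphenicol/ampicillin LB agar (control) or chloramphenicol/ampicillin/kanamycin with 0.1 mM IPTG. Recombination efficiency is recombinant-junction barcode counts as CPM, averaged, control-corrected, reported as log10(CPM+1).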
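Note: IS621 recombinase and bridge RNA in Escherichia coli cells.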

| Sequence | recombinant barcode read abundance (log10) |
| --- | --- |
| CGGCACACTTGGGTTCTAACCTGTTGCTT (site CGGCTCACTTA) | 0.129 |
| CGGCGTGCTTGGGTTCTAACCTGTTGCCT (site CAGCGTGCTAG) | 0.555 |
| CGGCGTGCTTGGGTTCTAACCTGTTGCCT (site CCGCGTGCTAG) | 0.34 |
| CGGCGTGCTTGGGTTCTAACCTGTTGCCT (site CGGCGTGCTAG) | 1.99 |
| CGGCGTGCTTGGGTTCTAACCTGTTGCCT (site CTGCGTGCTAG) | 0.161 |
| CGGCTACCTTGGGTTCTAACCTGTTGCGG (site CGGCTACCTCC) | 1.29 |
| CGGCTACCTTGGGTTCTAACCTGTTGCGG (site GACGGCACTAG) | 0.0111 |
| CGGCTGCCTTGGGTTCTAACCTGTTGCGG (site CGGCTGCCTCC) | 2.57 |
| CGGCTGCCTTGGGTTCTAACCTGTTGCGG (site GTATCCGCTTG) | 0.446 |
| CGGCTTCCTTGGGTTCTAACCTGTTGCGT (site CAACTTCCTAC) | 0.117 |
| CGGCTTCCTTGGGTTCTAACCTGTTGCGT (site CGGCTTCCTAC) | 1.24 |
| CGGGACACTTGGGTTCTAACCTGTTGCGG (site CGGAACACTCC) | 2.07 |
| CGGGACACTTGGGTTCTAACCTGTTGCGG (site CGGCACACTCC) | 0.143 |
| CGGGACACTTGGGTTCTAACCTGTTGCGG (site CGGGACACTCC) | 2.82 |
| CGGGACACTTGGGTTCTAACCTGTTGCGG (site CGGTACACTCC) | 0.867 |
| CGGGCTACTTGGGTTCTAACCTGTTGCCA (site CGGGCTACTTG) | 0.334 |
| CGGGCTACTTGGGTTCTAACCTGTTGCCA (site TCCTAATCTAA) | 0.00664 |
| CGGGGAGCTTGGGTTCTAACCTGTTGCCG (site CGGGAAGCTAG) | 0.427 |

| Sequence | recombinant barcode read abundance (log10) |
| --- | --- |
| CGGGGAGCTTGGGTTCTAACCTGTTGCCG (site CGGGGAGCTCG) | 0.761 |
| CGGGGCACTTGGGTTCTAACCTGTTGCCT (site CGGGGCACTAG) | 0.606 |
| CGGGGCACTTGGGTTCTAACCTGTTGCCT (site CTGGGCACTAG) | 0.18 |
| CGGGGTTCTTGGGTTCTAACCTGTTGCCT (site CAGGGTTCTAG) | 0.321 |
| CGGGGTTCTTGGGTTCTAACCTGTTGCCT (site CCGGGTTCTAG) | 0.167 |
| CGGGGTTCTTGGGTTCTAACCTGTTGCCT (site CGGGGTTCTAG) | 2.43 |
| CGGGGTTCTTGGGTTCTAACCTGTTGCCT (site CTGGGTTCTAG) | 0.0823 |
| CGGGTAACTTGGGTTCTAACCTGTTGCCT (site CGGGTAACTAG) | 0.0693 |
| CGGGTAACTTGGGTTCTAACCTGTTGCCT (site CTGGAAACTAG) | 0.0897 |
| CGGTAATCTTGGGTTCTAACCTGTTGCTT (site ACGTAATCTAA) | 0.0734 |
| CGGTAATCTTGGGTTCTAACCTGTTGCTT (site CGGTAATCTAA) | 0.161 |
| CGGTACACTTGGGTTCTAACCTGTTGCGG (site CGGAACACTCC) | 0.862 |
| CGGTACACTTGGGTTCTAACCTGTTGCGG (site CGGCACACTCC) | 2.48 |
| CGGTACACTTGGGTTCTAACCTGTTGCGG (site CGGGACACTCC) | 0.78 |
| CGGTACACTTGGGTTCTAACCTGTTGCGG (site CGGTACACTCC) | 3.14 |
| CGGTAGTCTTGGGTTCTAACCTGTTGCTG (site CGGTAGTCTAA) | 0.0345 |
| CGGTAGTCTTGGGTTCTAACCTGTTGCTG (site CGGTAGTCTCA) | 1.08 |
| CGGTGAACTTGGGTTCTAACCTGTTGCCT (site CAGTGAACTAG) | 0.109 |
